Measurements published in patent publication US6525214B1, “Therapeutic agent” (priority 1991, dated 2003).

Tests used:
[1] = Appearance of formulation made with the drug form; assay type: physicochemical
Experimental: The polyethylene glycol was mixed with about 25% of the required purified water and the Carbopol® dispersed in this mixture. About 56% of the required purified water was added with rapid stirring until the CARBOPOL® was well dispersed and appeared hydrated. The sodium hydroxide was dissolved in a minimum of purified water and added to the bulk with stirring. The S(+)-ibuprofen sodium salt dihydrate was dissolved in a mixture of phenoxyethanol, propylene glycol and remaining purified water and added to the Carbopol® gel with rapid stirring.
The LYCASIN® and glycerin were mixed together. The domiphen bromide was dissolved in the alcohol. The sodium salt was added to this alcoholic solution along with sufficient purified water to produce a solution. The aqueous alcoholic solution was added to the LYCASIN®/glycerin mixture and mixed well. Optional flavourings may be added to the above formulation.
The LYCASIN® and glycerin were mixed together and diluted with a suitable volume of water. The sodium salt was dispersed and dissolved in the mixture. The domiphen bromide was dissolved in the alcohol and this solution added slowly with stirring to the bulk. The formulation was made up to volume and mixed well. Optional flavourings may be added to the formulation.
The powders were sieved through a 30 mesh sieve and blended together, then filled into sachets containing 2000 mg of powder. Optional flavourings may be added to the above mixture.

[2] = in humans; cited from earlier work
[3] = topical gel formulation of Example 20 (Carbopol gel base)
[4] = higher strength oral liquid formulation of Example 25
[5] = low strength oral liquid formulation of Example 23

Row | SMILES | Appearance of product [1, 3] | Conversion into S(+)-ibuprofen [2] | Appearance on addition to hot water ([1]; cold relief powder formulation base of Example 27, hot water 70° C. or greater) | Appearance of product [1, 4] | Appearance of product [1, 5]
1 | CC(C)Cc1ccc(C(C)C(=O)[O-])cc1.[Na+] (racemic) [sodium salt of ibuprofen racemate, sodium 2-(4-isobutylphenyl)propionate] | a totally unsatisfactory product that separated into a clear upper liquid and a cloudy viscous lower layer | – | – | – | –
2 | CC(C)Cc1ccc([C@@H](C)C(=O)O)cc1 [R(−)-ibuprofen, R(−)-2-(4-isobutylphenyl)propionic acid] | – | partially converted into S(+)-ibuprofen | – | – | –
3 | CC(C)Cc1ccc([C@H](C)C(=O)O)cc1 [S(+)-ibuprofen free acid, S(+)-2-(4-isobutylphenyl)propionic acid] | an opaque product of a high viscosity not suitable for use as a topical rub | – | an unpalatable oily layer on the surface of the hot water | an unsuitable product with the drug floating on the surface | a poor product with a significant proportion of the S(+)-ibuprofen floating on the surface of the product
4 | CC(C)Cc1ccc([C@H](C)C(=O)[O-])cc1.O.O.[Na+] [S(−)sodium 2-(4-isobutylphenyl)propionate dihydrate] | – | – | – | a clear bright liquid | a bright clear product
